In patent publication US20100035926A1, “PYRAZOLE DERIVATIVES AS NON-STEROIDAL GLUCOCORTICOID RECEPTOR LIGANDS” (priority 2006, published 2010):
Where two headings read alike, the source gives them in different places.

Key:
glucocorticoid receptor = target: T1, glucocorticoid receptor (Homo sapiens, UniProt P04150); test: Glucocorticoid Receptor Binding Assay (fluorescence polarisation, displacement of Alexa 555 labelled dexamethasone derivative); conditions: at least once in this assay; read-out: glucocorticoid binding pIC50 (converted)
T1 construct: a partially purified full length glucocorticoid receptor
T1 sequence (P04150 1-777): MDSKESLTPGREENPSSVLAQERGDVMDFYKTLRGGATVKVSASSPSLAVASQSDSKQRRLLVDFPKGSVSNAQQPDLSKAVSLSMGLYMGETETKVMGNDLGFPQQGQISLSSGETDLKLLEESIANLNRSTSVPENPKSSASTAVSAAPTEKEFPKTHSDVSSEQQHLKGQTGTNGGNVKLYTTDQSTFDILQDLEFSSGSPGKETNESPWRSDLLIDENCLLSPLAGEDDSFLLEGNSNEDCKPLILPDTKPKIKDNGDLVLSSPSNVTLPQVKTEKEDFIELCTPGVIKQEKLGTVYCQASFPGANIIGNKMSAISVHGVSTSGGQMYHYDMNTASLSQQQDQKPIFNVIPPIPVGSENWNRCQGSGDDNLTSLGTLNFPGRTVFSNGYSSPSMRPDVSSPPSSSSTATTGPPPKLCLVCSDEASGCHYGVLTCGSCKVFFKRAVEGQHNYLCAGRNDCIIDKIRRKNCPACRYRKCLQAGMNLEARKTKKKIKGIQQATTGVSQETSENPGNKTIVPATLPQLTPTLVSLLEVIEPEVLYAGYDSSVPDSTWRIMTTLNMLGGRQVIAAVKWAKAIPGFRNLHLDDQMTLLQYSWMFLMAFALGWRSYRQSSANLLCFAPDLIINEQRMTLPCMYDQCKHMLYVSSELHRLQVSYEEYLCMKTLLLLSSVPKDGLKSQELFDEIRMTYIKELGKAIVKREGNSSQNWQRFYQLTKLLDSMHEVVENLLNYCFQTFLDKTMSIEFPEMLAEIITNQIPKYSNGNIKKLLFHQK
Method: Compounds were solvated and diluted in DMSO, and transferred directly into assay plates. Fluorescent dexamethasone and a partially purified full length glucocorticoid receptor were added to the plates, together with buffer components to stabilise the GR protein and incubated at room temperature for 2 hr in the dark. Binding of each compound was assessed by analysing the displacement of fluorescent ligand by measuring the decrease in fluorescence polarisation signal from the mixture.

GR [1] = target: T2, GR (Homo sapiens, UniProt P04150); test: GR Functional Assay - NFκB Assay (A549 SPAP cells, TNFα stimulated); format: cell-based; conditions: for Emax: agonists, read-out: average maximum asymptote in the NFkB assay
T2 construct: endogenous in cells; host or cells: A549 (human lung carcinoma, ECACC No. 86012804), stably transfected with reporter plasmids only
T2 sequence (P04150 1-777): T1 sequence (P04150 1-777)
Method: Stimulation of the cell line with TNFα results in intracellular signal transduction and ultimately translocation of NFκB into the nucleus. This activates the inserted DNA sequence resulting in transcription of the integrated SPAP gene, which is quantified using a calorimetric assay. […] The stably transfected cell line was grown as a monolayer in DMEM supplemented with FCS-HI (10%), Non-essential amino acids (1%), L-Glutamine (2 mM), Pen/Strep (1%) and Geneticin (50 mg/ml).
A 70% confluent T225 flask of A549 SPAP cells was harvested by centrifugation for 5 mins at 200 g, resuspended in assay buffer (DMEM supplemented with 10% FCS 2×HI, 2 mM L-Glutamine, 1% Pen/Strep and Non essential amino acids) and diluted to 0.16×10^6/ml. 60 μl of cell solution was dispensed to each well of clear Nunc 384-well plates, containing compound at the required concentration. […] Plates were equilibrated to room temperature for 1 hr prior to the addition of 25 μl of pNPP buffer (1M Diethanolamine pH 9.8, 0.5 mM MgCl2, 0.28M NaCl, 2 mg/ml pNPP) to each well of assay plates.

GR [2] = target: T2, GR; test: GR Agonist Assay - MMTV Assay (A549 MMTV cells, renilla luciferase reporter); format: cell-based; conditions: 6 h, agonists, read-out: average maximum asymptote in the MMTV agonist assay
Method: Stimulation of the cell line with GR agonists results in intracellular signal transduction and ultimately translocation of GR into the nucleus. This activates the inserted DNA sequence resulting in transcription of the integrated luciferase gene, which is quantified using a light emission. The stably transfected cell line was grown as a monolayer in DMEM supplemented with FCS-HI (10%), Non-essential amino acids (1%), L-Glutamine (2 mM), Pen/Strep (1%) and Geneticin (50 mg/ml).
A 90% confluent T175 flask of A549 MMTV cells was harvested by centrifugation for 5 min at 200 g, resuspended in assay buffer (DMEM supplemented with 10% FCS 2×HI, 2 mM Glutamax, Non essential amino acids and 25 mM HEPES) and diluted to 0.1×10^6/ml. 70 μl of cell solution was dispensed to each well of white Nunc 384-well plates, containing compound at the required concentration. […] The plates were covered to protect the reagents from light, and then incubated at room temperature for approximately 15 mins before reading them on a Viewlux.

[3] = at least once in the NFkB assay, A549 SPAP cells, read-out: pIC50 in the NFkB assay (converted)
[4] = at least once, examples listed as agonists in NFkB and MMTV assays, read-out: potency pIC50 in the NFKB assay (converted)

Compound	IC50 (glucocorticoid receptor) [µM]	Emax (GR [1]; A549 SPAP cells) [%]	IC50 (GR [1]; [3]) [µM]	IC50 (GR [1]; [4]) [µM]	Emax (GR [2]) [%]
CCN(CC(O)(CNC(=O)c1cnn(-c2ccc(F)cc2)c1N)C(F)(F)F)C(=O)c1cccc(C(F)(F)F)c1 (racemic) [Example 20 (racemic), 5-amino-N-{2-[(ethyl{[3-(trifluoromethyl)phenyl]carbonyl}amino)methyl]-3,3,3-trifluoro-2-hydroxypropyl}-1-(4-fluorophenyl)-1H-pyrazole-4-carboxamide]	< 1	≥ 40	< 1	< 0.316	≥ 40
CCN(CC(O)(CNC(=O)c1cnn(-c2ccc(F)cc2)c1N)C(F)(F)F)C(=O)c1ccccc1C(C)=O (racemic) [Example 13 (racemic), N-(2-{[[(2-acetylphenyl)car-bonyl](ethyl)amino]methyl}-3,3,3-trifluoro-2-hydroxypropyl)-5-amino-1-(4-fluorophenyl)-1H-pyrazole-4-carboxamide]	< 1	≥ 40		< 0.316	≥ 40
CCN(CC(O)(CNC(=O)c1cnn(-c2ccc(F)cc2)c1N)C(F)(F)F)C(=O)c1ccccc1OC(F)F (racemic) [Example 12 (racemic), 5-amino-N-(2-{[({2-[(difluoromethyl)oxy]phenyl}carbonyl) (ethyl)amino]methyl}-3,3,3-trifluoro-2-hydroxypropyl)-1-(4-fluorophenyl)-1H-pyrazole-4-carboxamide]	< 1	≥ 40		< 0.316	≥ 40
CCN(CC(O)(CNC(=O)c1cnn(-c2ccc(F)cc2)c1N)C(F)(F)F)C(=O)c1ccccc1F (single isomer, unassigned) [Example 4 Enantiomer 2, 5-Amino-N-[2-({ethyl[(2-fluorophenyl)carbonyl]amino}methyl)-3,3,3-trifluoro-2-hydroxypropyl]-1-(4-fluorophenyl)-1H-pyrazole-4-carboxamide]	< 1	≥ 40		< 0.316	≥ 40
Nc1c(C(=O)NCC(O)(CN(CCF)C(=O)c2ccccc2C(F)(F)F)C(F)(F)F)cnn1-c1ccc(F)cc1 (racemic) [Example 10 (racemic), 5-amino-1-(4-fluorophenyl)-N-{3,3,3-trifluoro-2-[((2-fluoroethyl){[2-(trifluoromethyl)phenyl]carbonyl}amino)methyl]-2-hydroxypropyl}-1H-pyrazole-4-carboxamide]	< 1	≥ 40		< 0.316	≥ 40

Other lines, results leading:

IC50 (glucocorticoid receptor) [µM]	Emax (GR [1]; A549 SPAP cells) [%]	IC50 (GR [1]; [3]) [µM]	IC50 (GR [1]; [4]) [µM]	Emax (GR [2]) [%]	Compound
< 1	≥ 40	< 1	< 0.316	≥ 40	CN(CC(O)(CNC(=O)c1cnn(-c2ccc(F)cc2)c1N)C(F)(F)F)C(=O)c1ccccc1C(F)(F)F (racemic) [Example 28 (racemic), 5-amino-1-(4-fluorophenyl)-N-{3,3,3-trifluoro-2-hydroxy-2-[(methyl{[2-(trifluoromethyl)phenyl]carbonyl}amino)methyl]propyl}-1H-pyrazole-4-carboxamide]
< 1	≥ 40		< 0.316	≥ 40	CCN(CC(O)(CNC(=O)c1cnn(-c2ccccc2)c1N)C(F)(F)F)C(=O)c1ccccc1 (racemic) [Example 43 (racemic), 5-amino-N-(2-{[ethyl(phenylcar-bonyl)amino]methyl}-3,3,3-trifluoro-2-hydroxypropyl)-1-phenyl-1H-pyrazole-4-carboxamide]
< 1	≥ 40		< 0.316	≥ 40	CCN(CC(O)(CNC(=O)c1cnn(-c2cc(F)cc(F)c2)c1N)C(F)(F)F)C(=O)c1ccccc1 (racemic) [Example 33 (racemic), 5-amino-1-(3,5-difluorophenyl)-N-(2-{[ethyl(phenylcarbonyl)amino]methyl}-3,3,3-trifluoro-2-hydroxypropyl)-1H-pyrazole-4-carboxamide]
< 1	≥ 40		< 0.316	≥ 40	Nc1c(C(=O)NCC(O)(CN(CCF)C(=O)c2ncccc2F)C(F)(F)F)cnn1-c1ccc(F)cc1 (racemic) [Example 40 (racemic), N-{2-[({[5-amino-1-(4-fluorophenyl)-1H-pyrazol-4-yl]carbonyl}amino)methyl]-3,3,3-trifluoro-2-hydroxypropyl}-3-fluoro-N-(2-fluoroethyl)-2-pyridinecarboxamide]
< 1	≥ 40	< 1	< 0.316	≥ 40	CCN(CC(O)(CNC(=O)c1cnn(-c2ccc(F)cc2)c1N)C(F)(F)F)C(=O)c1ccc(F)cc1Cl (racemic) [Example 23 (racemic), 5-amino-N-(2-{[[(2-chloro-4-fluorophenyl)car-bonyl](ethyl)amino]methyl}-3,3,3-trifluoro-2-hydroxypropyl)-1-(4-fluorophenyl)-1H-pyrazole-4-carboxamide]
< 1	≥ 40		< 0.316	≥ 40	CCN(CC(O)(CNC(=O)c1cnn(-c2cccc(Cl)c2)c1N)C(F)(F)F)C(=O)c1ccccc1 (racemic) [Example 37 (racemic), 5-amino-1-(3-chlorophenyl)-N-(2-{[ethyl(phenylcar-bonyl)amino]methyl}-3,3,3-trifluoro-2-hydroxypropyl)-1H-pyrazole-4-carboxamide]
< 1	≥ 40	< 1	< 0.316	≥ 40	CC(=O)c1ccccc1C(=O)N(C)CC(O)(CNC(=O)c1cnn(-c2ccc(F)cc2)c1N)C(F)(F)F (racemic) [Example 27 (racemic), N-(2-{[[(2-acetylphenyl)car-bonyl](methyl)amino]methyl}-3,3,3-trifluoro-2-hydroxypropyl)-5-amino-1-(4-fluorophenyl)-1H-pyrazole-4-carboxamide]
< 1	≥ 40		< 0.316	≥ 40	CCN(CC(O)(CNC(=O)c1cnn(-c2ccc(F)cc2)c1N)C(F)(F)F)C(=O)c1ncccc1F (racemic) [Example 38 (racemic), N-{2-[({[5-amino-1-(4-fluorophenyl)-1H-pyrazol-4-yl]carbonyl}amino)methyl]-3,3,3-trifluoro-2-hydroxypropyl}-N-ethyl-3-fluoro-2-pyridinecarboxamide]
